Data from US20220378715A1, “USE OF CANNABIDIOL PREPARATIONS IN THE TREATMENT OF ABSENCE EPILEPSY” (GW Research Limited, priority 2019, published 2022).

Assays:
Assay type in all cases: in vivo, rat
[1] = tested on: WAG/Rij rats; assay: Three chamber test (TCT), sociability
Protocol: (§1) To test the effects bCBD and sCBD on epileptic comorbidities, separate groups (n=10) of treated and vehicle WAG/Rij rats at 6 months of age were subjected to several behavioural tests (see below—cohort 2).
(§2) All behavioural tests were performed 1-hour post-dose in the morning. All experimental groups were subjected to a single test per day. […].
Three-chambered approach (sociability) is an automated, widely used and well validated assay that compares time that the subject (rodent) spends with a novel animal versus time spent with a non-social inanimate object.
The three-chamber apparatus is a non-transparent white plastic box with two transparent acrylic partitions with a rectangular opening. The acrylic partitions divide the box into three chambers (left, centre, and right), illuminated at 120 lux. The animal is placed in the middle chamber with the dividers closed to allow it to explore the middle chamber for ten minutes.
After this habituation period, an unfamiliar adult animal is placed inside a small wire cage in one of the side chambers. An identical wire cage with an inanimate object is placed in the opposite chamber. The dividers are then raised, allowing the test subject to move freely throughout all three chambers of the apparatus over a 10-minute test session. […]

[2] = tested on: WAG/Rij rats; assay: Forced swimming test (FST); conditions: for immobility time: sub-chronic, vs control
Protocol: as §1, §2
The FST, is currently the most reliable method to rapidly screen compounds for antidepressant activity in rodents; we used an FST protocol previously standardized in our laboratories for WAG/Rij rats.
Briefly, rats were placed individually for 6 min into a glass cylinder (height 47 cm, diameter 38 cm) filled with 38 cm of water maintained between 23° C. and 25° C. The total duration of immobility (immobility time) was recorded during the last 4 min of a 6-min testing period. The criterion for immobility and passive swimming (immobility time) was floating vertically in the water while making only those movements essential to keep the head above the surface of the water, which is directly proportional to depressive-like behaviour. At the end of the FST, rats were removed and dried with a towel before being returned to their home cage. Mean swimming velocity and total distance moved were also measured and examined for every experimental group in order to check for any obvious locomotor impairment.

[3] = tested on: WAG/Rij rats; assay: Novel object recognition test (nORT)
Protocol: as §1, §2
The nORT was performed as previously described by Bartolini et al. with some minor modifications. Briefly, three days before nORT, rats were exposed to a habituation trial lasting 6 min.
During this trial, each rat was allowed to freely explore an opaque open field Plexiglas box (70×70×30 cm). To investigate short-term memory, in the familiarization trial (T1) two identical objects (wood cubes) were located in two opposite corners of the box. Each rat was placed in the centre of the open field, facing away from the sample objects and left to explore freely the objects for a maximum of 5 min, before returning to its home cage. The familiarization trial ended when the rat completed 20 s of exploration for each object.
Exploration was considered directing the nose at a distance <2 cm to the object and/or touching it with the nose and sniffing. After a retention interval of 60 min the test phase (T2) was conducted.
After this session, the rat returned to home cage. The time spent exploring the familiar (F) and the novel object (N) was recorded separately and a discrimination index (DI) was calculated (DI=N−F/N+F). To avoid olfactory cues both the objects and the box were cleaned with 70% ethanol solution after each session.
Furthermore, to avoid place preference, the role (familiar or novel object) and the position of the two objects during T2 were randomly changed. Total distance moved (cm) was also evaluated and analysed for every experimental group in order to check for locomotor deficits.

[4] = tested on: WAG/Rij rats; assay: Elevated plus maze (EPM); conditions: 10 and 100 mg/Kg; p=0.67; FIG. 3B
Protocol: as §1, §2
The EPM consists of 2 opposing open arms and 2 opposing closed arms of the same size (45 cm×10 cm) with 10 cm high walls connected by a central platform (10×10 cm) and elevated 80 cm above the floor. Rats are positioned in the central platform facing a closed arm and the number of entries into, time spent on each arm, and central platform are measured.
The maze was systematically cleaned (Disposable towels and 70% ethanol solution) to remove olfactory cues, after each animal was tested. The shorter the time spent in open arms and central platform the higher the anxiety is and vice versa. Mean velocity and total distance moved were also measured and examined for every experimental group.

[5] = tested on: WAG/Rij rats; assay: Passive avoidance (PA)
Protocol: as §1, §2
Rats were tested in a step-through type passive avoidance apparatus (Ugo Basile, Italy, model 40,550), measuring 57×27×30 cm, consisting of a cage divided into two chambers (light and dark) by a sliding door.
The PA test was carried out over two successive days. Briefly, on day one (pre-acquisition trial or habituation), rats were introduced individually in the light compartment and allowed to freely explore the cage for 5 min. The acquisition or conditioning trial was conducted 15 min after habituation. Rats were individually introduced in the light compartment.; following a 30 s adaptation time, the sliding door between the two compartments was opened. When rats completely entered into the dark compartment, the sliding door was automatically closed and an electrical foot-shock (0.5 mA for 3 s) was delivered via the floor grid.
The latency to enter (s) in the dark compartment was detected and analysed. The retention or memory trial was evaluated 24 h after the acquisition trial, by recording their latency to enter (s) in the dark compartment. The latency to enter in the dark compartment was directly linked to the retention memory: the better the memory, the greater the latency.

[6] = tested on: WAG/Rij rats; assay: EEG recording of spike wave discharges (SWDs), established absence seizures; conditions: 10 and 100 mg/Kg i.p. twice daily, 14 days; vs control (vehicle); ANOVA across groups; FIG. 2A
Protocol: The effects of botanically derived purified CBD (>98%) (bCBD) and synthetic CBD (sCBD) at 10 and 100 mg/Kg, i.p. twice daily, for both drugs, was assessed in this animal model, by EEG-recordings and behavioural tests.
WAG/Rij rats were treated with bCBD or sCBD (10 and 100 mg/Kg, i.p. twice daily, for both drugs) over a chronic test period of at least 14 days.
Drug treatment was started at about 6 months of age (n=10 for every dose and drug group) and continued for 14 consecutive days, when experimental tests were performed (treatment was also continued during the experimental procedure phase. Age-matched control (vehicle) WAG/Rij rats (n =10) were kept under the same housing conditions over the same period of time with vehicle (1:1:18, Ethanol:kolliphor HS15:saline; i.p.).
WAG/Rij rats (n=10) underwent 2 EEG-recording periods in 2 consecutive days (one session per day). Every recording session lasted 3 hours and was performed 1 hour after drug administration. […]
All animals were allowed at least 1 week of recovery and handled twice a day. […] The blinded quantification of absence seizures was based on the number and the duration of EEG Spike Wave Discharges (SWDs).
All statistical procedures were performed using GraphPad Prism 6.0 (GraphPad Software, Inc., La Jolla, CA, USA). EEG recordings were subdivided into 30-min epochs, and the duration and number of SWDs were evaluated separately.

[7] = tested on: WAG/Rij rats; assay: Rotarod test (RT); conditions: 10 and 100 mg/Kg; p=0.9455; data not shown
Protocol: The Rotarod apparatus (Ugo Basile, Varese, Italy) consists of a base platform and a rotating rod with a diameter of 6 cm and a non-slippery surface. The integrity of motor coordination is assessed on the basis of the time the animals keep their balance on the accelerating rotating rod up to a maximum of 10 min (600 s).
Briefly, rats were pre-trained for 2 days in order to reach a stable performance. After the training, the rotation of the rod was gradually accelerated from 5 rpm to 50 rpm. After a maximum of 3 falls from the rod, the test is suspended and the time is recorded, the result is a mean of the 3 measures.

Structure (SMILES): C=C(C)[C@@H]1CCC(C)=C[C@H]1c1c(O)cc(CCCCC)cc1O [sCBD, cannabidiol]
- time spent in the novel rat chamber vs the novel object chamber ([1]; 100 mg/Kg, sub-chronic): significantly more time in the novel rat chamber
- time spent sniffing the novel rats ([1]; higher dose (100 mg/Kg), vs control rats, p<0.0001): significantly increased
- immobility time, overall ([2]; 10 and 100 mg/Kg, vs control (vehicle), ANOVA across groups, FIG. 3A): significantly (F4,45=12.29; p<0.0001; n=10 per group) reduce
- immobility time ([2]; higher dose (100 mg/Kg i.p. twice daily)): significant reduction
- immobility time ([2]; lower dose (10 mg/Kg i.p. twice daily)): not effective
- discrimination index (DI) ([3]; 100 mg/Kg, vs vehicle): significantly increased
- discrimination index (DI), overall ([3]; 10 and 100 mg/Kg, ANOVA across groups, FIG. 3D): significantly (F4,45=6.009; p=0.0006; n=10 per group) affect
- discrimination index (DI) ([3]; lower dose (10 mg/Kg), vs control): did not significantly
- anxiety-like behaviour [4]: not affected
- latency to enter in the dark compartment ([5]; conditioning trial, 10 and 100 mg/Kg, data not shown): no significant effect
- latency to enter in the dark compartment ([5]; retention session, higher dose (100 mg/Kg), vs control): did not significantly modify
- latency to enter in the dark compartment ([5]; retention session, lower dose (10 mg/Kg), vs control): did not significantly modify
- mean number of spike wave discharges (nSWDs) [6]: did not significantly (F4,45=2.572; p=0.0504; n=10 per group) alter
- rotarod test results (motor coordination) [7]: did not influence
